In ChEMBL document CHEMBL1201862, “PubChem BioAssay data set” (2004):
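A five-concentration, 48-hour dose response in 96-well plates underlies each endpoint, interpolated linearly between surrounding concentrations. Here, GI50 denotes the concentration required for 50% inhibition of growth.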 The source made the active and inactive calls. Rule as the data show it: active = GI50 up to about 1.1 µM and inactive = higher.

Tests used:
Assay in all cases: DTP human tumour cell line panel, 48 h
LOX IMVI = system: LOX IMVI
SNB-75 = system: SNB-75
A498 = system: A498
SK-MEL-28 = system: SK-MEL-28
SF-268 = system: SF-268
ACHN = system: ACHN
T47D = system: T47D
CCRF-CEM = system: CCRF-CEM
MDA-MB-435 = system: MDA-MB-435
CAKI-1 = system: CAKI-1
MDA-MB-231 = system: MDA-MB-231
Hs-578T = system: Hs-578T
HCC 2998 = system: HCC 2998
MCF7 = system: MCF7
A549 = system: A549
TK-10 = system: TK-10
UACC-257 = system: UACC-257
K562 = system: K562
RPMI-8226 = system: RPMI-8226
NCI-H226 = system: NCI-H226

SMILES | GI50 (LOX IMVI) | GI50 (SNB-75) | GI50 (A498) | GI50 (SK-MEL-28) | GI50 (SF-268) | GI50 (ACHN) | GI50 (T47D) | GI50 (CCRF-CEM) | GI50 (MDA-MB-435) | GI50 (CAKI-1) | GI50 (MDA-MB-231) | GI50 (Hs-578T) | GI50 (HCC 2998) | GI50 (MCF7) | GI50 (A549) | GI50 (TK-10) | GI50 (UACC-257) | GI50 (K562) | GI50 (RPMI-8226) | GI50 (NCI-H226)
C=CC(=O)N1C/C(=C\c2ccc(OC)cc2)C(=O)/C(=C/c2ccc(OC)cc2)C1 | 0.986 µM (active) | 6.05 µM (inactive) | 1.73 µM (inactive) | 2.81 µM (inactive) | 3.51 µM (inactive) | 1.78 µM (inactive) | 6.56 µM (inactive) | 1.78 µM (inactive) | 2.06 µM (inactive) | 3.22 µM (inactive) | 3.07 µM (inactive) | 3.34 µM (inactive) | 1.5 µM (inactive) | 0.628 µM (active) | 2.47 µM (inactive) | 3.66 µM (inactive) | 3.64 µM (inactive) | 2.86 µM (inactive) | 0.247 µM (active) | 2 µM (inactive)
O=C1/C(=C/C=C/c2ccccc2)CCC1CNc1ccccc1 (stereo not given) | 18.6 µM (inactive) | > 100 µM (inactive) | > 27 µM (inactive) | 44.6 µM (inactive) | 36.7 µM (inactive) | 76.9 µM (inactive) | 26.2 µM (inactive) | 3.48 µM (inactive) | 40.8 µM (inactive) | 40.2 µM (inactive) | 22 µM (inactive) | > 67 µM (inactive) | > 68.5 µM (inactive) | 6.49 µM (inactive) | > 66.2 µM (inactive) | 33 µM (inactive) | 42.5 µM (inactive) | 2.71 µM (inactive) | 1.59 µM (inactive) | > 100 µM (inactive)
C[C@]12CC[C@H](O)C[C@H]1CC[C@@H]1[C@@H]2CC[C@]2(C)[C@@H](C3=CC(=O)OC3)[C@@H](O)C[C@]12O [GITOXIGENIN] | 2.9 µM (inactive) | 4.15 µM (inactive) | 2.72 µM (inactive) | 5.13 µM (inactive) | 0.845 µM (active) | 0.451 µM (active) | 3.65 µM (inactive) | 0.51 µM (active) | 3.01 µM (inactive) | 1.58 µM (inactive) | 4.93 µM (inactive) | 0.968 µM (active) | 2.47 µM (inactive) | 2.05 µM (inactive) | 0.445 µM (active) | 0.625 µM (active) | 2.2 µM (inactive) | 3.38 µM (inactive) | 2.77 µM (inactive) | 3.12 µM (inactive)
